The record followed here is ChEMBL document CHEMBL4020792, “Sialidase inhibitory activity of diarylnonanoid and neolignan compounds extracted from the seeds of Myristica fragrans” (Bioorg Med Chem Lett, 2017).

Each structure is given as a SMILES string.

The IC50 is the concentration that inhibits the measured activity by half. For orientation: Ki means a measure of affinity in units of concentration, obtained from inhibition or displacement.

Assay [1] has as its target T1, Sialidase A (Streptococcus pneumoniae, UniProt P62575). In words: (§1) Inhibition of Streptococcus pneumoniae sialidase NanA using 4-methylumbelliferyl-alpha-D-N-acetylneuraminic acid as substrate after 60 mins by FRET assay.
For assay [2], the target named is Sialidase A (Streptococcus pneumoniae) (UniProt P62575). Described as §1.
Chain of Sialidase A (Streptococcus pneumoniae) (P62575 whole entry): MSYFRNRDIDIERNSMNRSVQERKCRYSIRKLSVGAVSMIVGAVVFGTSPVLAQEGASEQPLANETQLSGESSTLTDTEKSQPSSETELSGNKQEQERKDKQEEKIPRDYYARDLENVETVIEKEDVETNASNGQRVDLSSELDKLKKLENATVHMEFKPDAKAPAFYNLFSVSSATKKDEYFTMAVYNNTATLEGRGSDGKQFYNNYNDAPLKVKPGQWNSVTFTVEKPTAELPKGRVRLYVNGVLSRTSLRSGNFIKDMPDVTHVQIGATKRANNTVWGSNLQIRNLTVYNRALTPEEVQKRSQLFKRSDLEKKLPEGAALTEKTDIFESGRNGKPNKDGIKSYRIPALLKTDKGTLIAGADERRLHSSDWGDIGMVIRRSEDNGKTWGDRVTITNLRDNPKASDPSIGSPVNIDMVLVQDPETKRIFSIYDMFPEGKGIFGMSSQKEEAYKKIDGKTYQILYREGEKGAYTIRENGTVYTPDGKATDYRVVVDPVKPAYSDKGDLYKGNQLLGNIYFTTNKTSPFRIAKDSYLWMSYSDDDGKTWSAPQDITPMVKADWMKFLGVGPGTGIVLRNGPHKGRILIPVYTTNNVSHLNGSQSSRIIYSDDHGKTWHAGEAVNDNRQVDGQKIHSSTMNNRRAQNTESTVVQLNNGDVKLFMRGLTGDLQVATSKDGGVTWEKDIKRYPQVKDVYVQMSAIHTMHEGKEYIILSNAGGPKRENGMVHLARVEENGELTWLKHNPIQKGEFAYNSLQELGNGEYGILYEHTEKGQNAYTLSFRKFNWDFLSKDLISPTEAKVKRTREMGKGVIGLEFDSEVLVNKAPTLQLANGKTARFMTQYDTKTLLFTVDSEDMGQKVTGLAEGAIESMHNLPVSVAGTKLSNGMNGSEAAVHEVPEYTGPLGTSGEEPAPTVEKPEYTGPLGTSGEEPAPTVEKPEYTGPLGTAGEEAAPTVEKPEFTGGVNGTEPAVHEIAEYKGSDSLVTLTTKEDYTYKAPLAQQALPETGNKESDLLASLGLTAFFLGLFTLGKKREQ
In assay [3] the target is T1, Sialidase A. In words: Noncompetitive inhibition of Streptococcus pneumoniae sialidase NanA using 4-methylumbelliferyl-alpha-D-N-acetylneuraminic acid as substrate after 60 mins by Lineweaver-Burk plot/Dixon plot analysis.
The nature of assay [4]: (§2) Inhibition of Streptococcus pneumoniae sialidase NanC using 4-methylumbelliferyl-alpha-D-N-acetylneuraminic acid as substrate after 60 mins by FRET assay.
Assay [5] deals with Streptococcus pneumoniae. The description is as §2.
Assay [6] in a line: (§3) Inhibition of Streptococcus pneumoniae sialidase NanB using 4-methylumbelliferyl-alpha-D-N-acetylneuraminic acid as substrate after 60 mins by FRET assay.
In assay [7] the test system is Streptococcus pneumoniae. The assay is described as §3.
Assay [8] is described as follows: Noncompetitive inhibition of Streptococcus pneumoniae sialidase NanC using 4-methylumbelliferyl-alpha-D-N-acetylneuraminic acid as substrate after 60 mins by Lineweaver-Burk plot/Dixon plot analysis.
Assay [9] can be described thus: Noncompetitive inhibition of Streptococcus pneumoniae sialidase NanB using 4-methylumbelliferyl-alpha-D-N-acetylneuraminic acid as substrate after 60 mins by Lineweaver-Burk plot/Dixon plot analysis.
For assay [10], the target named is T1, Sialidase A. Kind of assay: Competitive inhibition of Streptococcus pneumoniae sialidase NanA using 4-methylumbelliferyl-alpha-D-N-acetylneuraminic acid as substrate after 60 mins by Lineweaver-Burk plot/Dixon plot analysis.

T1 sequence (P62575 whole entry): as above

For `COc1cc([C@H]2O[C@@H](c3ccc(O)c(OC)c3)[C@@H](C)[C@@H]2C)ccc1O`, the figures for the IC50 (against Sialidase A [1]; in assay [4] (read-out: IC50); in assay [6] (read-out: IC50)) were 37.2 µM, 274 µM and 331 µM, respectively. Besides, the inhibition entry (in [2]; in the assay on Streptococcus pneumoniae [5]; with Streptococcus pneumoniae [7]) was “Dose-dependent effect” in each case. The Ki at Sialidase A [3] worked out at 21.9 µM.

For `C=CCc1cc(OC)c(O[C@H](C)[C@H](OC(C)=O)c2ccc(OC)c(OC)c2)c(OC)c1`, the IC50 against Sialidase A [1] is 295 µM; in assay [4], “Not Active”; in [6], “Not Active”.

Regarding `C=CCc1cc(OC)c(O)c(OC)c1` [METHOXYEUGENOL], the Ki in assay [8] was determined as 30.2 µM; at Sialidase A [3] it was 4.2 µM. Besides, the IC50 at Sialidase A [1] came out at 6.9 µM; in [4] (read-out: IC50) it was 33.6 µM; in assay [6] (read-out: IC50) it was 77.6 µM. Besides, the inhibition result (in assay [2]; in the assay with Streptococcus pneumoniae [5]; in the assay on Streptococcus pneumoniae [7]) was “Dose-dependent effect” throughout.

Regarding `C/C=C/c1cc(OC)c2c(c1)[C@H](C)[C@@H](c1ccc(O)c(OC)c1)O2` [LICARIN A], the figures for the IC50 (on Sialidase A [1]; in assay [4] (read-out: IC50); in assay [6] (read-out: IC50)) were 7.9 µM, 113 µM and 95.8 µM, respectively. The inhibition entry (in [2]; in the assay on Streptococcus pneumoniae [5]; in the assay with Streptococcus pneumoniae [7]) was “Dose-dependent effect” throughout. The same compound yielded a Ki at Sialidase A [3] of 9.4 µM.

Turning to `C=CCc1cc(O)c(OC)c(O)c1`, the Ki worked out at 91.8 µM in [8], 4.9 µM on Sialidase A [3] and 74 µM in [9]. The figures for the IC50 (against Sialidase A [1]; in assay [4] (read-out: IC50); in [6] (read-out: IC50)) were 2 µM, 60.5 µM and 27.1 µM, respectively. Besides, the inhibition result (in [2]; in the assay on Streptococcus pneumoniae [5]; in the assay with Streptococcus pneumoniae [7]) was “Dose-dependent effect” each time.

With `COc1cc([C@@H](O)[C@@H](C)Oc2c(OC)cc(/C=C/CO)cc2OC)ccc1O`, the values for the Ki (in assay [8]; on Sialidase A [3]; in assay [9]) were 37.8 µM, 3 µM and 39.2 µM, respectively. The results for the IC50 (against Sialidase A [1]; in assay [4] (read-out: IC50); in [6] (read-out: IC50)) were 1.6 µM, 24.6 µM and 20.9 µM, respectively. The inhibition result (in [2]; with Streptococcus pneumoniae [5]; with Streptococcus pneumoniae [7]) was “Dose-dependent effect” in each case.

With `O=C(CCCCCCCCc1ccc(O)c(O)c1)c1c(O)cccc1O` [MALABARICONE C], the Ki worked out at 0.1 µM at Sialidase A [10], 2.1 µM in [8] and 3 µM in assay [9]. The IC50 came out at 0.3 µM against Sialidase A [1], 2.9 µM in assay [4] (read-out: IC50) and 3.6 µM in assay [6] (read-out: IC50). The inhibition result (in assay [2]; in the assay on Streptococcus pneumoniae [5]; with Streptococcus pneumoniae [7]) was “Dose-dependent effect” in each case.

For `C/C=C/c1cc(OC)c2c(c1)[C@H](C)[C@@H](c1cc(OC)c3c(c1)OCO3)O2`, the IC50 against Sialidase A [1] was determined as 44.2 µM; in [4] (read-out: IC50), 317 µM; in assay [6] (read-out: IC50) it was 92.1 µM. For the same compound, the inhibition entry (in [2]; in the assay with Streptococcus pneumoniae [5]; in the assay on Streptococcus pneumoniae [7]) was “Dose-dependent effect” in each case. This compound registered a Ki on Sialidase A [3] of 47.5 µM.

In the case of `C=CCc1cc(OC)c(O[C@@H](C)[C@H](O)c2ccc(O)c(OC)c2)c(OC)c1`, the values for the IC50 (on Sialidase A [1]; in assay [4] (read-out: IC50); in assay [6] (read-out: IC50)) were 25.6 µM, 103 µM and 229 µM, respectively. Further, the inhibition result (in [2]; in the assay on Streptococcus pneumoniae [5]; with Streptococcus pneumoniae [7]) was “Dose-dependent effect” in each case. Moreover, at Sialidase A [3], the Ki worked out at 15.1 µM.

As to `C/C=C/c1cc(OC)c2c(c1)[C@H](C)[C@@H](c1ccc3c(c1)OCO3)O2` [(-)-LICARIN B], the Ki amounted to 12.1 µM in assay [8], 1.3 µM on Sialidase A [3] and 13.5 µM in assay [9]. Moreover, the IC50 against Sialidase A [1] worked out at 1.5 µM; in assay [4] (read-out: IC50), 30.7 µM; in assay [6] (read-out: IC50), 14 µM. For the same compound, the inhibition result (in assay [2]; with Streptococcus pneumoniae [5]; in the assay with Streptococcus pneumoniae [7]) was “Dose-dependent effect” in each case.

With `O=C(CCCCCCCCc1ccc(O)cc1)c1c(O)cccc1O` [MALABARICONE B], the Ki was found to be 0.5 µM on Sialidase A [10], 5.8 µM in assay [8] and 5.6 µM in [9]. The IC50 is 0.4 µM against Sialidase A [1], 14.3 µM in [4] (read-out: IC50) and 5.7 µM in assay [6] (read-out: IC50). Also, the inhibition entry (in [2]; in the assay with Streptococcus pneumoniae [5]; in the assay on Streptococcus pneumoniae [7]) was “Dose-dependent effect” in each case.
